Source: patent EP0060659A1, “Pharmaceutical composition for tumour treatment and process for preparing it” (NATIONAL FOUNDATION FOR CANCER RESEARCH, INC., priority 1981, dated 1982)
Where “and” joins values, the source holds several entries; their conditions need not be identical. Equal entries are not always repeated.

How the values were obtained:
Ehrlich ascites cells = test: Ehrlich ascites tumour in mice, test substance in drinking water (Example 2); assay type: in vivo, adult female white Swiss mice; set-up: average weight of the tumours / weight of the excised tissues (tumour): unit not given here
Method: 30 adult female white Swiss mice were inoculated behind the right foreleg on the ventral side with about 5 x 10^6 Ehrlich ascites cells in 0.2 ml of physiological saline. The mice were randomized and divided into three groups, each group containing 10 animals. All animals received water to drink during days 1 and 2. On day 3, the water of one group (Group B) was replaced by a 0.05 molar solution of glyoxal whilst the water of another group (Group C) was replaced by a 0.05 molar solution of a glyoxal-cysteine adduct prepared essentially as described in Example 1. The third, or control, group (Group A) continued to receive water. All groups could drink ad libidum.
No weight loss was observed.
All animals were narcotized and their tumours excised and cleaned from the surrounding tissues.
In the cases where the tumour which developed was slightly ascitic, the fluid was not weighed and this is believed to account for the rather lower weight of these tumours.

tumour cells = details: cited from earlier work

SMILES | toxic symptoms or loss of weight (Ehrlich ascites cells; after 7 days, 0.05 molar solution as drinking water) | size or form of the tumour on visual inspection (Ehrlich ascites cells; after 7 days, compared with control group) | inhibition over the control (Ehrlich ascites cells; from average tumour weights, 0.05 molar solution as drinking water) | average weight of the tumours (Ehrlich ascites cells; group of 10 mice, 0.05 molar solution as drinking water from day 3, control group average 1200) | weight of the excised tissues (tumour) (Ehrlich ascites cells; individual animals, 0.05 molar solution as drinking water from day 3, ad libitum, excised after 7 days, * = slightly ascitic tumour, fluid not weighed) | toxicity to cells of normal tissues (tumour cells)
O=CC=O [glyoxal] | no toxic symptoms or loss of weight | No significant decrease | about 18% | 985 | 800 and 530 and 190 and 90* and 1270 and 330 and 1220 and 1700 and 2740 and 980 | 
CC(O)C=CC=O (stereo not drawn) [4-hydroxypentenal] |  |  |  |  |  | only slightly toxic
